The supplement of paper PMC11616607

What was measured:
Assay in all cases: drug sensitivity score (DSS) from 5-point dose-response viability curve (DSS (area-under-curve based score)); higher = more sensitive (stronger growth inhibition or killing); extreme values may be limits of the assay
Details in all cases: exposure time: 72 h; concentration range: 5 concentrations over 10,000-fold range
[1] = test system: HOSE2C
Method in brief: (§1)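 For the drug sensitivity score, obtained per cell line and drug in Breeze software, larger values mean greater sensitivity. No response corresponds to a score of zero. Ovarian cancer and normal ovarian cells were seeded at 1,500 per well into 384-well plates already holding acoustically dispensed drugs (Echo 550, DMSO or water, five concentrations over a 10,000-fold range) and incubated 3 days at 37°C, 5% CO2. CellTiter-Glo luminescence on a PHERAstar FS gave the viability readout.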

[2] = test system: OVCAR5
Method in brief: as §1

[3] = test system: HOSE1C
Method in brief: as §1

[4] = test system: OVCAR4
Method in brief: as §1

[5] = test system: CAOV3
Method in brief: as §1

[6] = test system: COV362
Method in brief: as §1

[7] = test system: COV318
Method in brief: as §1

[8] = test system: JHOS2
Method in brief: as §1

[9] = test system: OV90
Method in brief: as §1

[10] = test system: OVCAR8
Method in brief: as §1

[11] = test system: Kuramochi
Method in brief: as §1

[12] = test system: Ovsaho
Method in brief: as §1

Compound | drug sensitivity score [1] | drug sensitivity score [2] | drug sensitivity score [3] | drug sensitivity score [4] | drug sensitivity score [5] | drug sensitivity score [6] | drug sensitivity score [7] | drug sensitivity score [8] | drug sensitivity score [9] | drug sensitivity score [10] | drug sensitivity score [11] | drug sensitivity score [12]
CCN(CC)CCCC(C)Nc1c2ccc(Cl)cc2nc2ccc(OC)cc12 (centres undefined) [Mepacrine] | 8.2 | 13.1 | 9.7 | 15.2 | 9.4 | 10.3 | 10.3 | 10.5 | 16 | 12.1 | 13.2 | 13.1
S=c1[nH]cnc2nc[nH]c12 [Mercaptopurine] | 0 | 7.3 | 0 | 12.3 | 12.4 | 6.4 | 0.1 | 4.1 | 4.4 | 8.6 | 7.7 | 5.5
Cc1ccc(C(=O)Nc2ccc(Oc3cc4cnn(C)c4cc3-c3cn[nH]c3)c(F)c2)c(=O)n1-c1ccc(F)cc1 [Merestinib] | 0 | 0.9 | 0 | 0.4 | 0 | 0 | 0 | 2.4 | 0.6 | 0.1 | 1.1 | 0
CN(C)C(=N)NC(=N)N [Metformin] | 0 | 0 | 0 | 0 | 0 | 0 | 0 | 0 | 0 | 0 | 0 | 0
CN(Cc1cnc2nc(N)nc(N)c2n1)c1ccc(C(=O)N[C@@H](CCC(=O)O)C(=O)O)cc1 [Methotrexate] | 13.2 | 13.8 | 13.7 | 14.8 | 16.7 | 14.5 | 0 | 6.5 | 10.6 | 12.3 | 13 | 2.9
C[C@H]1C[C@@H]2[C@H]([C@@H](O)C[C@@]3(C)[C@H]2CC[C@]3(O)C(=O)CO)[C@@]2(C)C=CC(=O)C=C12 [Methylprednisolone] | 0 | 0 | 0 | 0 | 0 | 1.2 | 1.3 | 0.7 | 0 | 0.2 | 0 | 1
CO[C@@H]1[C@H](N(C)C(=O)c2ccccc2)C[C@H]2O[C@]1(C)n1c3ccccc3c3c4c(c5c6ccccc6n2c5c31)C(=O)NC4 [Midostaurin] | 15.1 | 5.3 | 11.7 | 8.5 | 17.7 | 5 | 8.1 | 9.7 | 12.7 | 7 | 7.2 | 14.1
CNC(=O)c1nn(C)c2c1C(C)(C)Cc1cnc(Nc3ccc(N4CCN(C)CC4)cc3)nc1-2 [Milciclib] | 7.4 | 9.4 | 8.8 | 6.4 | 6.8 | 5.4 | 6.5 | 9.1 | 8.1 | 6.2 | 10.1 | 10.7
CCCCCCCCCCCCCCCCOP(=O)([O-])OCC[N+](C)(C)C [Miltefosine] | 5.9 | 9.1 | 5.5 | 3.5 | 12.8 | 3.4 | 4.7 | 11.5 | 4.1 | 5 | 5.8 | 7.3
CO[C@@]12[C@H](COC(N)=O)C3=C(C(=O)C(C)=C(N)C3=O)N1C[C@@H]1N[C@@H]12 [Mitomycin C] | 0 | 0 | 0 | 0 | 4.7 | 0 | 0 | 0 | 0.9 | 0 | 0 | 0
Clc1ccc(C(c2ccccc2Cl)C(Cl)Cl)cc1 (centres undefined) [Mitotane] | 0 | 0 | 0 | 0.3 | 0 | 0 | 0.1 | 0 | 0.5 | 0 | 0 | 0
O=C1c2c(O)ccc(O)c2C(=O)c2c(NCCNCCO)ccc(NCCNCCO)c21 [Mitoxantrone] | 12.8 | 6.1 | 12.5 | 4.2 | 13 | 4 | 3.9 | 6.2 | 5.9 | 9.2 | 3.2 | 6.5
CCS(=O)(=O)Nc1ccc(Oc2ccc(F)cc2F)c(-c2cn(C)c(=O)c3[nH]ccc23)c1 [Mivebresib] | 25.6 | 20.2 | 30.7 | 18.3 | 25.3 | 9.4 | 6.4 | 18.4 | 22.1 | 24.7 | 22.6 | 22.8
Nc1ccccc1NC(=O)c1ccc(CNc2nccc(-c3cccnc3)n2)cc1 [Mocetinostat] | 15.7 | 13.7 | 17.8 | 6.8 | 7.1 | 1.1 | 8.1 | 7.3 | 7.5 | 13 | 7 | 7.8
CCNC(=O)C[C@@H]1N=C(c2ccc(Cl)cc2)c2cc(OC)ccc2-n2c(C)nnc21 [Molibresib] | 10 | 7.8 | 9.8 | 4.3 | 8.4 | 2.3 | 3.3 | 4.1 | 8.4 | 5.7 | 9.3 | 9.3
N#CCNC(=O)c1ccc(-c2ccnc(Nc3ccc(N4CCOCC4)cc3)n2)cc1 [Momelotinib] | 5.8 | 3.3 | 6.8 | 0 | 0.9 | 1 | 2.7 | 6.9 | 2.6 | 4.8 | 1 | 2.4
CC1(C)CNc2cc(NC(=O)c3cccnc3NCc3ccncc3)ccc21 [Motesanib] | 0 | 0 | 0 | 0 | 0 | 0 | 1.1 | 0 | 0.3 | 0 | 2.1 | 3.5
CCCN(CCC)C(=O)C1=Cc2ccc(-c3ccc(C(=O)N4CCCC4)cc3)cc2N=C(N)C1 [Motolimod] | 0 | 0.5 | 0 | 0.9 | 0 | 0 | 2.3 | 1.8 | 1.9 | 0.8 | 0.3 | 0
FC(F)(F)c1ccc(/C=C/c2nc(COc3ccc(CCCCn4ccnn4)cc3)co2)cc1 [Mubritinib] | 0 | 0.9 | 0 | 2.2 | 5.4 | 0 | 0.8 | 0.3 | 5.9 | 16.7 | 0.6 | 0.5
Cc1cc(OCc2nnc(SC3CCCC3)n2-c2cccnc2)ccc1-c1ccc(S(C)(=O)=O)cc1 [NMS-873] | 8.1 | 8.9 | 9.3 | 7.9 | 8.6 | 4.4 | 8.7 | 6.7 | 12.4 | 19.9 | 6.8 | 6.9
COc1ccc(-c2ccc3ncc4c(c3c2)n(-c2ccc(N3CCNCC3)c(C(F)(F)F)c2)c(=O)n4C)cn1 [NVP-BGT226] | 15.7 | 14.6 | 22.2 | 13.6 | 12.7 | 4.6 | 9.3 | 11.6 | 17.2 | 14.9 | 10.2 | 15.6
Cc1ccc(C(=O)Nc2cccc(C(F)(F)F)c2)cc1Nc1nc(-c2cccnc2)nc2c1cnn2C [NVP-BHG712] | 2.7 | 8.8 | 2.2 | 1.4 | 0 | 5.6 | 2.8 | 2.1 | 0.1 | 4.9 | 2.5 | 2.9
COc1cc2c(cc1OC(C)C)[C@H](c1ccc(Cl)cc1)N(c1ccc(N(C)C[C@H]3CC[C@H](N4CCN(C)C(=O)C4)CC3)cc1)C(=O)C2 [NVP-CGM097] | 16.5 | 7.2 | 11.4 | 5 | 3.3 | 4.6 | 5.9 | 6.4 | 5.4 | 5.7 | 5.5 | 5.8
CN[C@@H](C)C(=O)N[C@H](C(=O)N1CCC[C@H]1c1nc(C(=O)c2ccc(F)cc2)cs1)C1CCCCC1 [NVP-LCL161] | 0 | 4.1 | 0.7 | 16.4 | 14.4 | 1.9 | 0.8 | 9.1 | 5 | 8.5 | 1.9 | 8.6
Cn1c(Nc2ccc(C(F)(F)F)cc2)nc2cc(Oc3ccnc(-c4ncc(C(F)(F)F)[nH]4)c3)ccc21 [NVP-RAF265] | 4.5 | 0.4 | 6.9 | 0.3 | 2.2 | 0 | 0 | 1.2 | 4.2 | 1.9 | 0 | 1.7
CC(=O)c1cc2c(o1)C(=O)c1ccccc1C2=O [Napabucasin] | 24.2 | 21.3 | 28.9 | 19 | 18.2 | 12.4 | 16.2 | 18.6 | 17.9 | 16.3 | 16.7 | 17.3
CC1(C)CCC(c2ccc(Cl)cc2)=C(CN2CCN(c3ccc(C(=O)NS(=O)(=O)c4ccc(N[C@H](CCN5CCOCC5)CSc5ccccc5)c(S(=O)(=O)C(F)(F)F)c4)cc3)CC2)C1 [Navitoclax] | 5.9 | 0.9 | 24.2 | 2 | 2.6 | 0 | 0 | 0 | 10.2 | 0 | 0 | 3
